Reference: PubChem BioAssay AID330 (DTP/NCI, 2004)
Values joined by “and” are separate entries in the source; they are usually repeats but may differ in a detail not shown here. Identical values can stand only once. Inconclusive results and toxic doses are left out.

Tested on: P388 leukemia ip, CD2F1 mice, survival T/C
Assay: NCI In Vivo Anticancer Drug Screen. Data for tumor model P388 Leukemia (intraperitoneal) in CD2F1 (CDF1) mice
Details: endpoint: median survival time, higher = longer survival
Procedure, shortened: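 Mice carrying the transplanted tumor received test compound or vehicle. Survival was recorded in each group, and the value is the treated-group measurement divided by that of the vehicle-treated control group.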

[1] = dose: 50.0 mg/kg/injection, schedule: Q01DX005 (ip), vehicle: saline with Tween-80
[2] = dose: 200.0 mg/kg/injection, schedule: Q01DX005 (ip), vehicle: saline with Tween-80
[3] = dose: 50.0 mg/kg/injection, schedule: Q01DX009 (ip), vehicle: saline with Tween-80
[4] = dose: 100.0 mg/kg/injection, schedule: Q01DX009 (ip), vehicle: saline with Tween-80
[5] = dose: 50.0 mg/kg/injection, schedule: Q01DX009 (ip), vehicle: saline
[6] = dose: 100.0 mg/kg/injection, schedule: Q01DX009 (ip), vehicle: saline
[7] = dose: 200.0 mg/kg/injection, schedule: Q01DX009 (ip), vehicle: saline
[8] = dose: 12.5 mg/kg/injection, schedule: Q01DX009 (ip), vehicle: saline
[9] = dose: 25.0 mg/kg/injection, schedule: Q01DX009 (ip), vehicle: saline

CCOC(=O)C(Cc1ccccc1C(=O)NC)c1ccccc1 (stereo not drawn)
T/C (dose: 100.0 mg/kg/injection, schedule: Q01DX009 (ip), vehicle: saline sonified): 95 % of control | T/C (dose: 200.0 mg/kg/injection, schedule: Q01DX009 (ip), vehicle: saline sonified): 95 % of control | T/C (dose: 400.0 mg/kg/injection, schedule: Q01DX009 (ip), vehicle: saline sonified): 95 % of control

O=C1N(CCO)C2=CCCCC23c2[nH]c4ccccc4c2CCN13 (stereo not drawn)
T/C [1]: 104 % of control | T/C (dose: 100.0 mg/kg/injection, schedule: Q01DX005 (ip), vehicle: saline with Tween-80): 102 % of control | T/C [2]: 102 % of control

CN(C)C(=S)SCc1ccc(C(=O)O)nc1
T/C [3]: 99 % of control | T/C [4]: 98 % of control

F[B-](F)(F)F
T/C (dose: 12.5 mg/kg/injection, schedule: Q01DX009 (ip), vehicle: gum acacia): 111 % of control | T/C (dose: 25.0 mg/kg/injection, schedule: Q01DX009 (ip), vehicle: gum acacia): 118 % of control | T/C (dose: 50.0 mg/kg/injection, schedule: Q01DX009 (ip), vehicle: gum acacia): 109 % of control and 114 % of control | T/C (dose: 100.0 mg/kg/injection, schedule: Q01DX009 (ip), vehicle: gum acacia): 123 % of control

OC[C@@H](O)C[C@H](CO)Cc1ccc2c(c1)OCO2
T/C (dose: 50.0 mg/kg/injection, schedule: Q04DX002 (ip), vehicle: saline with Tween-80): 96 % of control | T/C (dose: 100.0 mg/kg/injection, schedule: Q04DX002 (ip), vehicle: saline with Tween-80): 87 % of control | T/C (dose: 200.0 mg/kg/injection, schedule: Q04DX002 (ip), vehicle: saline with Tween-80): 99 % of control

CC(C)C(N)CO (stereo not drawn)
T/C [5]: 107 % of control | T/C [6]: 106 % of control | T/C [7]: 100 % of control

CCc1ccc(C(C)(C)C)cc1
T/C (dose: 37.5 mg/kg/injection, schedule: Q01DX009 (ip), vehicle: saline with Tween-80): 110 % of control | T/C [3]: 104 % of control | T/C (dose: 75.0 mg/kg/injection, schedule: Q01DX009 (ip), vehicle: saline with Tween-80): 111 % of control | T/C [4]: 109 % of control | T/C (dose: 132.0 mg/kg/injection, schedule: Q01DX009 (ip), vehicle: saline with Tween-80): 113 % of control | T/C (dose: 150.0 mg/kg/injection, schedule: Q01DX009 (ip), vehicle: saline with Tween-80): 102 % of control

C=C(CC(N)=O)C(N)C(=O)O (stereo not drawn)
T/C (dose: 60.0 mg/kg/injection, schedule: Q01DX005 (ip), vehicle: saline): 100 % of control | T/C (dose: 120.0 mg/kg/injection, schedule: Q01DX005 (ip), vehicle: saline): 100 % of control | T/C (dose: 240.0 mg/kg/injection, schedule: Q01DX005 (ip), vehicle: saline): 100 % of control

O=C(Cc1ccccc1)N1CCc2cc3c(cc2C1Cc1cc2c(cc1Br)OCO2)OCO3 (stereo not drawn)
T/C (dose: 12.5 mg/kg/injection, schedule: Q01DX001 (ip), vehicle: saline + alcohol): 98 % of control | T/C (dose: 25.0 mg/kg/injection, schedule: Q01DX001 (ip), vehicle: saline + alcohol): 99 % of control | T/C (dose: 50.0 mg/kg/injection, schedule: Q01DX001 (ip), vehicle: saline + alcohol): 100 % of control

CCC1(C(=O)Sc2ccccc2)OC1c1ccccc1 (stereo not drawn)
T/C (dose: 100.0 mg/kg/injection, schedule: Q01DX001 (ip), vehicle: Klucel (hydroxypropylcellulose) (HPC)): 89 % of control | T/C (dose: 200.0 mg/kg/injection, schedule: Q01DX001 (ip), vehicle: Klucel (hydroxypropylcellulose) (HPC)): 90 % of control | T/C (dose: 400.0 mg/kg/injection, schedule: Q01DX001 (ip), vehicle: Klucel (hydroxypropylcellulose) (HPC)): 90 % of control

Nc1cc2c(c[n+](CCCBr)c3ccccc23)c2ccccc12
T/C (dose: 1.56 mg/kg/injection, schedule: Q04DX003 (ip), vehicle: other): 118 % of control | T/C (dose: 3.13 mg/kg/injection, schedule: Q04DX003 (ip), vehicle: other): 118 % of control | T/C (dose: 6.25 mg/kg/injection, schedule: Q04DX003 (ip), vehicle: other): 122 % of control

CCN(CC)C(=Nc1ccc(NC(=O)c2ccc(C(=O)Nc3ccc(N=C(c4ccccc4)N(CC)CC)cc3)cc2)cc1)c1ccccc1
T/C (dose: 50.0 mg/kg/injection, schedule: Q01DX005 (ip), vehicle: Klucel (hydroxypropylcellulose) (HPC)): 96 % of control | T/C (dose: 100.0 mg/kg/injection, schedule: Q01DX005 (ip), vehicle: Klucel (hydroxypropylcellulose) (HPC)): 97 % of control | T/C (dose: 200.0 mg/kg/injection, schedule: Q01DX005 (ip), vehicle: Klucel (hydroxypropylcellulose) (HPC)): 96 % of control

CCN(CC)C1CC(O[C@H]2C[C@](O)(C(=O)CO)Cc3c(O)c4c(c(O)c32)C(=O)c2c(OC)cccc2C4=O)OC(C)C1O (stereo partly drawn)
T/C (dose: 1.56 mg/kg/injection, schedule: Q01DX009 (ip), vehicle: water): 153 % of control | T/C (dose: 3.13 mg/kg/injection, schedule: Q01DX009 (ip), vehicle: water): 165 % of control and 178 % of control

CCOC(=O)C1CCC=CC1OC(C)=O (stereo not drawn)
T/C (dose: 100.0 mg/kg/injection, schedule: Q01DX001 (ip), vehicle: olive oil, sesame oil, peanut oil): 112 % of control | T/C (dose: 200.0 mg/kg/injection, schedule: Q01DX001 (ip), vehicle: olive oil, sesame oil, peanut oil): 108 % of control | T/C (dose: 400.0 mg/kg/injection, schedule: Q01DX001 (ip), vehicle: olive oil, sesame oil, peanut oil): 107 % of control

O=C1NC(c2cccc3ccccc23)Nc2ccc(O)cc21 (stereo not drawn)
T/C (dose: 8.75 mg/kg/injection, schedule: Q01DX005 (ip), vehicle: DMSO): 102 % of control | T/C (dose: 17.5 mg/kg/injection, schedule: Q01DX005 (ip), vehicle: DMSO): 100 % of control | T/C (dose: 35.0 mg/kg/injection, schedule: Q01DX005 (ip), vehicle: DMSO): 102 % of control | T/C (dose: 70.0 mg/kg/injection, schedule: Q01DX005 (ip), vehicle: DMSO): 98 % of control | T/C (dose: 140.0 mg/kg/injection, schedule: Q01DX005 (ip), vehicle: DMSO): 100 % of control

O=C1c2ccccc2C(=O)c2c1cc1cccccc2-1
T/C (dose: 3.13 mg/kg/injection, schedule: Q01DX005 (ip), vehicle: saline with Tween-80): 99 % of control | T/C (dose: 6.25 mg/kg/injection, schedule: Q01DX005 (ip), vehicle: saline with Tween-80): 97 % of control | T/C (dose: 12.5 mg/kg/injection, schedule: Q01DX005 (ip), vehicle: saline with Tween-80): 90 % of control and 91 % of control | T/C [1]: 89 % of control | T/C [2]: 95 % of control

CCCCCCC(=O)/C=C/c1ccc(OC(=O)c2ccc([N+](=O)[O-])cc2)cc1
T/C [8]: 105 % of control | T/C [9]: 100 % of control | T/C [5]: 103 % of control and 97 % of control | T/C [6]: 92 % of control | T/C [7]: 92 % of control

CC1=NN(c2ccc(S(=O)(=O)O)cc2)C(=O)/C1=C/c1ccc(Cl)cc1
T/C (dose: 50.0 mg/kg/injection, schedule: Q04DX003 (ip), vehicle: saline sonified): 100 % of control | T/C (dose: 100.0 mg/kg/injection, schedule: Q04DX003 (ip), vehicle: saline sonified): 100 % of control | T/C (dose: 200.0 mg/kg/injection, schedule: Q04DX003 (ip), vehicle: saline sonified): 95 % of control

CC(=O)OC(C)(C)/C=C/C(=O)[C@](C)(O)[C@H]1[C@H](O)C[C@@]2(C)[C@@H]3CC=C4[C@@H](C=C(O)C(=O)C4(C)C)[C@]3(C)C(=O)C[C@]12C
T/C (dose: 0.25 mg/kg/injection, schedule: Q01DX009 (ip), vehicle: saline with Tween-80): 87 % of control | T/C (dose: 1.0 mg/kg/injection, schedule: Q01DX009 (ip), vehicle: saline with Tween-80): 91 % of control | T/C (dose: 1.0 mg/kg/injection, schedule: Q01DX009 (ip), vehicle: saline): 93 % of control | T/C (dose: 2.0 mg/kg/injection, schedule: Q01DX009 (ip), vehicle: saline with Tween-80): 91 % of control | T/C (dose: 2.0 mg/kg/injection, schedule: Q01DX009 (ip), vehicle: saline): 94 % of control | T/C (dose: 4.0 mg/kg/injection, schedule: Q01DX009 (ip), vehicle: saline with Tween-80): 91 % of control | T/C (dose: 4.0 mg/kg/injection, schedule: Q01DX009 (ip), vehicle: saline): 93 % of control | T/C (dose: 8.0 mg/kg/injection, schedule: Q01DX009 (ip), vehicle: saline): 93 % of control

CC(=O)CN1CCSC1=N
T/C (dose: 100.0 mg/kg/injection, schedule: Q01DX001 (ip), vehicle: saline): 97 % of control

NCCc1ccc(OCc2ccccc2)c(OCc2ccccc2)c1
T/C (dose: 6.25 mg/kg/injection, schedule: Q01DX009 (ip), vehicle: saline): 101 % of control and 107 % of control | T/C [8]: 108 % of control and 118 % of control | T/C [9]: 101 % of control and 109 % of control

O=[Se](O)O
T/C (dose: 0.78 mg/kg/injection, schedule: Q01DX005 (ip), vehicle: water): 106 % of control and 110 % of control | T/C (dose: 1.56 mg/kg/injection, schedule: Q01DX005 (ip), vehicle: water): 114 % of control and 119 % of control | T/C (dose: 3.12 mg/kg/injection, schedule: Q01DX005 (ip), vehicle: water): 114 % of control | T/C (dose: 6.25 mg/kg/injection, schedule: Q01DX005 (ip), vehicle: water): 117 % of control
